As for `O=C(CCC(F)(F)F)N[C@H]1CC[C@H](CCN2CCN(c3cc(C(F)(F)F)ccc3F)CC2)CC1` [Example 736, 4,4,4-Trifluoro-N-(4-{2-[4-(2-fluoro-5-trifluoromethyl-phenyl)piperazin-1-yl]ethyl}cyclohexyl)butanamide], the melting point turned out to be 182 °C.
Consider `CC(=O)CN1CCC(CCN2CC=C(c3cc(F)cc(C(F)(F)F)c3)CC2)CC1.Cl.Cl`, for which the melting point was determined as 287 °C.
For `CC(=O)CN1CCC(CCN2CCN(c3cc(C(F)(F)F)ccc3F)CC2)CC1.Cl.Cl`, the melting point came out at 230 °C.
For `CC(=O)CN1CCC(CCN2CCN(c3ccc(C)cc3F)CC2)CC1` [Example 482, 1-(4-{2-[4-(2-Fluoro-4-methylphenyl)piperazin-1-yl]ethyl}piperidin-1-yl)propan-2-one], the melting point was determined as 65 °C.
`CC(O)c1cccc(N2CCN(CC[C@H]3CC[C@H](NC(=O)CC(F)(F)F)CC3)CC2)c1` (stereo partly drawn) [Example 477, 3,3,3-trifluoro-N-[4-(2-{4-[3-(1-hydroxyethyl)phenyl]piperazin-1-yl}ethyl)cyclohexyl]propanamide] registered a melting point of 190 °C.
As to `CCc1cccc(N2CCN(CC[C@H]3CC[C@H](NC(=O)CS(C)(=O)=O)CC3)CC2)c1` [Example 425, N-(4-{2-[4-(3-Ethylphenyl)-piperazin-1-yl]ethyl}cyclohexyl)-2-methanesulfonylacetamide], the melting point was 185 °C.
Turning to `CNC(=O)CC1CCC(CCN2CCN(c3cccc(C(F)(F)F)c3)CC2)CC1` (mixture of isomers) [Example 295, N-Methyl-2-(4-{2-[4-(3-trifluoromethylphenyl)piperazin-1-yl]ethyl}cyclohexyl)acetamide cis/trans 50/50], the melting point was found to be 196 °C.
As to `Cc1ccccc1N1CCN(CC[C@H]2CC[C@H](NC(=O)C3=CCCC3)CC2)CC1` [Example 556, Cyclopent-1-enecarboxylic acid {4-[2-(4-o-tolylpiperazin-1-yl)ethyl]cyclohexyl} amide], the melting point stood at 181 °C.
Molecule `COCCCC(=O)N[C@H]1CC[C@H](CCN2CCN(c3ccccc3F)CC2)CC1` [Example 76, N-(4-{2-[4-(2-Fluorophenyl)-piperazin-1-yl]ethyl}cyclohexyl)-4-methoxybutanamide] displayed a melting point of 175 °C.
Turning to `N#CCC(=O)N[C@H]1CC[C@H](CCN2CCN(c3cccc(Cl)c3F)CC2)CC1` [Example 185, N-(4-{2-[4-(3-Chloro-2-fluorophenyl)piperazin-1-yl]ethyl}cyclohexyl)-2-cyanoacetamide], the melting point was found to be 183 °C.
Turning to `O=C(N[C@H]1CC[C@H](CCN2CCN(c3ccccc3)CC2)CC1)C1=CCCCC1` [Example 66, Cyclohex-1-enecarboxylic acid {4-[2-(4-phenylpiperazin-1-yl)ethyl]cyclohexyl}amide trans/cis 90/10], the melting point amounted to 193 °C.
As for `N#CCCCCC(=O)NC1CCC(CCN2CCN(c3cccc(C(F)(F)F)c3)CC2)CC1` (stereo not drawn) [Example 745, 5-Cyano-pentanoic acid (4-{2-[4-(3-trifluoromethylphenyl)-piperazin-1-yl]ethyl}cyclohexyl) amide], the melting point turned out to be 90 °C.
On to `COc1ccc(Cl)c(N2CCN(CCC3CCN(CC(C)=O)CC3)CC2)c1.Cl.Cl`, for which the melting point came out at 263 °C.
The molecule `N#CCCCC(=O)N[C@H]1CC[C@H](CCN2CC=C(c3ccc(F)cc3)CC2)CC1` gave a melting point of 180 °C.
Molecule `COCc1cccc(N2CCN(CC[C@H]3CC[C@H](NC(=O)CC#N)CC3)CC2)c1` [Example 270, 2-Cyano-N-(4-{2-[4-(3-methoxymethylphenyl)piperazin-1-yl]ethyl}cyclohexyl)acetamide] registered a melting point of 117 °C.
In turn, `CC(=O)CN1CCC(CCN2CCN(c3cccc(C)c3C#N)CC2)CC1.Cl.Cl` came in with a melting point of 215 °C.
`N#CCCCC(=O)N[C@H]1CC[C@H](CCN2CCN(c3cccc(SC(F)(F)F)c3)CC2)CC1` [Example 363, 4-Cyano-N-(4-{2-[4-(3-trifluoromethylsulfanylphenyl)piperazin-1-yl]ethyl}cyclohexyl)butanamide] returned a melting point of 150 °C.
As to `CS(=O)(=O)c1cccc(N2CCN(CC[C@H]3CC[C@H](NC(=O)C(F)(F)F)CC3)CC2)c1` [Example 461, 2,2,2-Trifluoro-N-(4-{2-[4-(3-methanesulfonylphenyl)piperazin-1-yl]ethyl}cyclohexyl)acetamide], the melting point was 132 °C.
In turn, `N#CCCCC(=O)N[C@H]1CC[C@H](CCN2CCN(c3ccc(F)c(F)c3F)CC2)CC1` [Example 451, 4-Cyano-N-(4-{2-[4-(2,3,4-trifluorophenyl)piperazin-1-yl]ethyl}cyclohexyl)butanamide] displayed a melting point of 178 °C.
Molecule `O=C(CC(F)(F)F)N[C@H]1CC[C@H](CCN2CCN(c3ccccc3)CC2)CC1` [Example 188, 3,3,3-Trifluoro-N-{4-[2-(4-phenylpiperazin-1-yl)ethyl]cyclohexyl}propanamide] had a melting point of 185 °C.
The figure for `CCc1ccccc1N1CCN(CCC2CCN(CC(C)=O)CC2)CC1.Cl.Cl` is 291 °C; for `COCCCC(=O)N[C@H]1CC[C@H](CCN2CCN(c3cc(F)cc(Cl)c3)CC2)CC1` [Example 740, N-(4-{2-[4-(3-Chloro-5-fluorophenyl)piperazin-1-yl]ethyl}cyclohexyl)-4-methoxybutanamide] it is 177 °C; for `CCCOCC(=O)N[C@H]1CC[C@H](CCN2CCN(c3cc(C(F)(F)F)ccc3F)CC2)CC1.Cl` it is 240 °C.
`COCCCC(=O)N[C@H]1CC[C@H](CCN2CCN(c3cccc(C(F)(F)F)c3F)CC2)CC1` [Example 470, N-(4-{2-[4-(2-Fluoro-3-trifluoromethylphenyl)piperazin-1-yl]ethyl}cyclohexyl)-4-methoxybutanamide] had a melting point of 175 °C.
Take `N#CCCCC(=O)N[C@H]1CC[C@H](CCN2CCc3cc(C#N)ccc3C2)CC1` [Example 558, 4-Cyano-N-{4-[2-(6-cyano-3,4-dihydro-1H-isoquinolin-2-yl)ethyl]cyclohexyl}butanamide]: the melting point is 177 °C.
The result for `Cc1cccc(N2CCN(CC[C@H]3CC[C@H](NC(=O)CC(F)(F)F)CC3)CC2)c1` [Example 235, 3,3,3-Trifluoro-N-{4-[2-(4-m-tolylpiperazin-1-yl)ethyl]cyclohexyl}propanamide] reads 170 °C; that for `Cl.Cl.O=C(CN1CCC(CCN2CCN(c3cccc(C(F)(F)F)c3)CC2)CC1)c1ccccc1`, 260 °C; that for `COc1ccccc1N1CCN(CC[C@H]2CC[C@H](NC(=O)CC#N)CC2)CC1` [Example 124, 2-Cyano-N-(4-{2-[4-(2-methoxyphenyl)piperazin-1-yl]ethyl}cyclohexyl)acetamide], 187 °C.
The figure for `Cc1cc(N2CCN(CC[C@H]3CC[C@H](NC(=O)CC#N)CC3)CC2)ccc1F` [Example 322, 2-Cyano-N-(4-{2-[4-(4-fluoro-3-methylphenyl)piperazin-1-yl]ethyl}cyclohexyl)acetamide] is 192 °C; for `N#CCC(=O)N[C@H]1CC[C@H](CCN2CC=C(c3ccc(Cl)cc3)CC2)CC1` it is 220 °C.

In general, melting point refers to the temperature, or range, at which the solid turns liquid.

Values taken from patent publication US8802678B2, “Carbonylated (aza) cyclohexanes as dopamine D3 receptor ligands” (Bioprojet, priority 2006, dated 2014).
